Consider ten compounds from patent US7897789B2, “Vitamin D receptor modulators” (Eli Lilly and Company, priority 2003, dated 2011).

Each structure is given as a SMILES string. Values joined by “and” are separate entries in the source; they are usually repeats but may differ in a detail not shown here. Identical values can stand only once. Like-named read-outs stand apart in the source and are kept apart here.

As usually defined, the EC50 is the concentration giving half of the maximal effect. One may read the IC50 as the point on the concentration scale where inhibition reaches its midpoint.

One data set deals with DBF mice. Description: Mouse hypercalcemia assay. As to conditions: oral gavage for 6 days, serum ionized calcium 6 hours after last dosing; Table 1.
A further data set has as its target T1, RXR-VDR heterodimer (Homo sapiens, UniProt P11473).
T1 construct: Add the Gal4-RXR-DEF and VP16-VDR-LBD; expressed in transfected cells; host or cells: SaOS-2 cells
T1 sequence (P11473 127-423 limits assumed): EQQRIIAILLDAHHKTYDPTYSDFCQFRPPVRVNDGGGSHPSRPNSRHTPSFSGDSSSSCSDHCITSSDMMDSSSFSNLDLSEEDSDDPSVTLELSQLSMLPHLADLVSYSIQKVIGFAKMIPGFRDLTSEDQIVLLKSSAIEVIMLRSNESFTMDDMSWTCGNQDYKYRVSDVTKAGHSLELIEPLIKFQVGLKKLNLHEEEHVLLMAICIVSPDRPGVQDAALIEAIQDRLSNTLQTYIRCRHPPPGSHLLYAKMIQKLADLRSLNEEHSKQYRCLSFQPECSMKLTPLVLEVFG
T1 sequence (P19793 201-462 partner limits assumed): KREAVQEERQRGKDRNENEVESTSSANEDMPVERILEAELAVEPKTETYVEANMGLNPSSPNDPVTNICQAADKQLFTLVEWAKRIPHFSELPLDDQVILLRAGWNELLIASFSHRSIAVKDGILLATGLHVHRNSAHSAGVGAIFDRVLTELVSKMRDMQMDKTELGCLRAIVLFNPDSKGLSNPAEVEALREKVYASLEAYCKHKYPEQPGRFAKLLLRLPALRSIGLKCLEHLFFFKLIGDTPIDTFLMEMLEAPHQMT
As to the kind of experiment: RXR-VDR heterodimerization assay (SaOS-2 cells). The format is cell-based. The settings on record: Gal4-RXR / VP16-VDR-LBD luciferase reporter, Table 1. Here is the method: 1. The RXR-VDR HeterodimerAssay:
This assay provides the VDR activity of a test compound.
(1) Materials and Method for RXR-VDR Heterodimerization Assay:
Luciferase Assay Reagent: • Use Steady-Glo Luciferase Reagent from Promega (Cat #E2550) Consists of: a. E2533 Assay Substrate, lyopholized product and b. E2543 Assay Buffer. • Thaw at room temperature • Store Cell Harvesting Aspirate media from culture flask, rinse cells with HBSS and aspirate. Add trypsin and incubate. When cells appear detached, resuspend cells in growth media. Transfer into a new flask with fresh growth media for passaging the cells. Plate well plates and two extra plates A. Cell Count Mix the cell suspension using pipette Use Hematocytometer to count the cells Load cell suspension onto the hemocytometer chamber Count cells. […] In sterile flask add cell suspension to plating media. Mix. Add cells/well. Place the cells in the incubator. Cells should be about 75% confluent prior to transfection. DAY 2: Transfection Step 1: DNA and Media Add plain DMEM media to tubes for mixing the DNA Add the Reporter gene pFR-LUC Add the Gal4-RXR-DEF and VP16-VDR-LBD Step 2: FuGENE and Media Prepare plain DMEM media in a ubes for mixing FuGENE Add FuGENE 6 Transfection Reagent Incubate Step 3: FuGENE, DNA and Media Complex Add FuGENE Media complex from step 2 to DNA Media complex from step 1 Incubate Step 4: FuGENE, DNA and Media Complex to-well plate Add FuGENE-DNA-Media complex from step 3 to each plate Incubate. […] Day 4: Luciferase Assay Read the plates after drug treatment Remove part of media from all the wells and leave remainder Add Steady-Glo Luciferase Reagent mixture/wells Incubate Count each well using a Luminescence counter, Top Count NXT by Packard
Set a delay between plates to reduce the background.
Background: In a reporter assay the amount or activity of a reporter protein is the signal.

The next data set relates to rat osteocalcin promoter. As to the kind of experiment: OCN (osteocalcin) promoter assay. In kind it is cell-based. The settings on record: RG-15 (ROS 17/2.8) cells, 48 hr treatment, Table 1. Here is the method: 3. The OCN (Osteocalcin) Promoter Assay
The OCN Promoter Assay is an indicator and marker for osteoporosis. […] Preferred assay results are less than 50 nM.
(3) Materials and Method for the OCN Promoter Assay:
The activation of osteocalcin by VDR ligands was evaluated in a rat osteoblast-like cell line RG-15 (ROS 17/2.8) stably expressing rat osteocalcin promoter fused with luciferase reporter gene. […] Confluent RG-15 cells maintained in DMEM/F-12 medium (3:1) containing 5% FBS, 300 μg/ml G418 and at 37° C. under 5% CO2/95% air atmosphere were trypsinized (0.25% trypsin) and plated into white opaque 96-well cell culture plates (25000 cells/well). After 24 hr, cells (in DMEM/F-12 medium+2% FBS) were treated with various concentrations of compounds, dissolved in DMSO. The final DMSO concentration remained at 0.01% (v/v). After 48 hr treatment, the medium was removed, cells were lysed with 50 μl of lysis buffer (From Luciferase reporter assay system, Roche Diagnostics, Indianapolis, Ind.) and assayed for luciferase activity using the Luciferase Reporter Gene Assay kit from Boehringer Mannheim as per manufacturer's specifications.

In a further data set the target is T2, VDR (Homo sapiens, UniProt P11473).
T2 construct: the receptor expression vector pGal4-VDR-LBD (10 ng); expressed in transfected cells; host or cells: Caco-2 cells
T2 sequence (P11473 127-423 limits assumed): T1 sequence (P11473 127-423 limits assumed)
Description: Caco-2 cell co-transfection assay (VDR CTF). The format is cell-based. The settings on record: Caco-2 cells, pGal4-VDR-LBD luciferase co-transfection; Table 1. The procedure:
2. The Caco-2 Cell Co-Transfection Assay:
The Caco-2 cell assay is an indicator for the undesirable condition of hypercalcemia. This co-transfection assay is a surrogate assay for in vivo calcemic activity of VDR ligands. […] Preferred assay results are greater than 1000 nM.
(2) Materials and Method for The Caco-2 Cell Assay:
Caco-2 cells, grown in phenol red free, DMEM (Invitrogen, Carlsbad, Calif.) containing 10% charcoal-stripped FCS (Hyclone, Logan, Utah), were transfected with Fugene 6 reagent (Roche Diagnostics, Indianapolis, Ind.). Cells (5000/well) were plated 18 h before transfection in a 96 well plate. The Cells were transfected with Gal4-responsive reporter pFRLuc (150 ng, Stratagene, La Jolla Calif.) and the receptor expression vector pGal4-VDR-LBD (10 ng), along with Fugene 6 reagent (0.2 μl/well). The DNA-Fugene complex was formed by incubating the mixture for 30 min at room temperature. The cells were transfected in triplicate for 5 h, and treated with various concentrations of VDR ligands (form 0.01 nM to 10,000 nM concentration range) 18 h post-transfection. The luciferase activity was quantified using Steady-Glo reagent kit (Promega, Madison, Wis.) as per manufacturer's specifications.

The subject of another data set is KERtr cells. As to the kind of experiment: Keratinocyte proliferation assay. The format is cell-based. As to conditions: Homo sapiens. The procedure: 5. The Keratinocyte Proliferation Assay
This Assay is indicative for the treatment of psoriasis.
(5) The Keratinocyte Proliferation Assay:
KERtr cells (Human skin keratinocyte transformed with a retrovirus vector, obtained from ATCC) were plated in 96-well flat-bottomed plates (3000 cells/well) in 100 μl keratinocyte serum free medium supplemented with bovine pituitary extract in the absence of EGF (Life Technologies, Rockville, Md.) and incubated at 37° C. for two days. The cells were treated with various concentrations of VDR ligands (ten-fold serial dilution from 10,000 nM to 0.1 nM in triplicate), dissolved in 100 μl keratinocyte serum free medium supplemented with bovine pituitary extract in the absence of EGF and incubated at 37° C. for 72 hr. […] Potency values (IC50) values were determined as the concentration (nM) of compound that elicited a half-maximal response.

A further data set deals with IL-10. Description: Human IL-10 induction assay in PBMCs. In kind it is cell-based. As to conditions: PBMC. The source says:
6. The IL-10 Induction Assay
This is an in vitro efficacy assay for psoriasis, abscess and adhesion. Psoriasis involves both keratinocytes and immune cells. IL-10 is a unique cytokine because it is anti-inflammatory and immunosuppressive. This assay tells us whether a VDRM is able to function as an agonist in PBMCs ([…]) or not.
(6) Materials and Method for Human IL-10 Induction Assay:
Isolation of Peripheral Blood Mononuclear Cells (PBMCs):
Stimulation of PBMC: • L. Prepare TPA in DMSO. • M. Dissolve PHA in water. • N. Plate TPA/PHA treated PBMCs in well plates. • O. Incubate.
Sample Collection and Assay: • S. Remove all the cells by centrifugation and assay the supernatant for IL-10 by immunoassay. • T. Perform IL-10 assay using anti-human IL-10 antibody coated beads, as described by the manufacturer (Linco Research Inc., St. Charles, Mo.). (8) CaT1 Assay

Setting [1] is: 72 h, BrdU incorporation, Table 2, read-out: Kera. Prolif. IC50.
The mark [2] stands for this setting: TPA/PHA treated human PBMCs, Table 2.

Description for DBF mice: The Mouse Hypercalcemia Assay
The Mouse Hypercalcemia Assay is a six day hypercalcemia test for toxicity and selectivity.
(4) Materials and Method for the Mouse Hypercalcemia Assay:
Weanling, virus-antibody-free, five to six weeks old female DBF mice (Harlan, Indianapolis, Ind.) are used for all the studies. Animals are allowed to acclimate to local vivarium conditions for 2 days. […] The animals then are divided into groups with 4-5 mice per group. Different doses of test compounds prepared in 10% Ethanol and 90% sesame oil are administered to mice orally via gavage for 6 days. 1α-25(OH)2D3 0.5 μg/kg/d was also given to one group of mice as the positive control. […] Raw data of group differences is assessed by analysis of variance (ANOVA) using Fisher's protected least significant difference (PLSD) where the significance level was P<0.05.

Turning to `CCC(CC)(c1ccc(OCC(=O)C(C)(C)C)c(C)c1)c1ccc2sc(C(=O)NCC(=O)O)cc2c1` [Ex 15, [(5-{1-[4-(3,3-dimethyl-2-oxo-butoxy)-3-methyl-phenyl]-1-ethyl-propyl}-benzo[b]thiophene-2-carbonyl)-amino]-acetic acid], the “Mouse Hypercal” value in the data set on DBF mice is less than 1000 µg/kg/day. Also, the EC50 at RXR-VDR heterodimer is 539 nM and 63 nM.
Consider `CCC(CC)(c1ccc(OCC(=O)C(C)(C)C)c(C)c1)c1cc2cc(C(=O)O)ccc2s1` [Ex 17, 2-{1-[4-(3,3-dimethyl-2-oxo-butoxy)-3-methyl-phenyl]-1-ethyl-propyl}-benzo[b]thiophene-5-carboxylic acid], for which the “Mouse Hypercal” value in the data set on DBF mice was more than 300 µg/kg/day. In addition, the EC50 in the data set with rat osteocalcin promoter was 3 nM; in the data set with rat osteocalcin promoter (Rattus norvegicus, 48 h) it was 4 nM; on RXR-VDR heterodimer, 272 nM and 51 nM; at VDR, 631 nM. In addition, in the data set with KERtr cells (setting [1]), the IC50 amounted to 404 nM.
For `CCC(CC)(c1ccc(OCC(O)C(C)(C)C)c(C)c1)c1cc2cc(C(=O)O)ccc2s1` (stereo not drawn) [Ex 18, 2-{1-ethyl-1-[4-(2-hydroxy-3,3-dimethyl-butoxy)-3-methyl-phenyl]-propyl}-benzo[b]thiophene-5-carboxylic acid], the EC50 in the data set with rat osteocalcin promoter came out at 1.3 nM; in the data set with rat osteocalcin promoter (Rattus norvegicus, 48 h), 2.4 nM; on VDR, 748 nM. Further, the IC50 was determined as 89 nM in the data set with IL-10 (setting [2]) and 1.8 nM in the data set with KERtr cells (setting [1]).
Consider `CCC(CC)(c1ccc(OCC(O)C(C)(C)C)c(C)c1)c1cc2cc(C(=O)NCC(=O)O)ccc2s1` (stereo not drawn) [Ex 20, [(2-{1-Ethyl-1-[4-(2-hydroxy-3,3-dimethyl-butoxy)-3-methyl-phenyl]-propyl}-benzo[b]thiophene-5-carbonyl)-amino]-acetic acid], for which the EC50 in the data set on rat osteocalcin promoter (Rattus norvegicus, 48 h) came to 5 nM; at RXR-VDR heterodimer, 24 nM; at VDR it was 314 nM. The IC50 with IL-10 (setting [2]) turned out to be 386 nM; in the data set with KERtr cells (setting [1]) it was 98 nM.
On to `CCC(CC)(c1ccc(OCC(=O)C(C)(C)C)c(C)c1)c1cc2cc(C(=O)N(C)C)ccc2s1` [Ex 21, 2-{1-[4-(3,3-Dimethyl-2-oxo-butoxy)-3-methyl-phenyl]-1-ethyl-propyl}-benzo[b]thiophene-5-carboxylic acid dimethylamide], for which, in the data set on DBF mice, the “Mouse Hypercal” value is more than 1000 µg/kg/day. The EC50 is 48 nM in the data set with rat osteocalcin promoter; 29 nM in the data set on rat osteocalcin promoter (Rattus norvegicus, 48 h); 134 nM and 24 nM at RXR-VDR heterodimer; 708 nM on VDR. Also, in the data set on KERtr cells (setting [1]), the IC50 amounted to 162 nM.
Turning to `CCC(CC)(c1ccc(OCC(=O)C(C)(C)C)c(C)c1)c1ccc2cc(C(=O)N(C)C)sc2c1` [Ex. 3, 6-{1-[4-(3,3-Dimethyl-2-oxo-butoxy)-3-methyl-phenyl]-1-ethyl-propyl}-benzo[b]thiophene-2-carboxylic acid dimethylamide], the EC50 on RXR-VDR heterodimer was 442 nM and 67 nM; on VDR, 869 nM. Besides, the IC50 with IL-10 (setting [2]) is 351 nM; in the data set on KERtr cells (setting [1]) it was more than 1000 nM.
Consider `CCC(CC)(c1ccc(OCC(O)C(C)(C)C)c(C)c1)c1ccc2cc(C(=O)NCC(=O)O)sc2c1` (stereo not drawn) [Ex. 6, [(6-{1-ethyl-1-[4-(2-hydroxy-3,3-dimethyl-butoxy)-3-methyl-phenyl]-propyl}-benzo[b]thiophene-2-carbonyl)-amino]-acetic acid], for which, at VDR, the EC50 came out at 331 nM. The IC50 with IL-10 (setting [2]) and with KERtr cells (setting [1]) was 4 nM each time.
The compound `CCC(CC)(c1ccc(OCC(O)C(C)(C)C)c(C)c1)c1cc2ccc(C(=O)O)cc2s1` (stereo not drawn) [Ex. 8, 2-{1-Ethyl-1-[4-(2-hydroxy-3,3-dimethyl-butoxy)-3-methyl-phenyl]-propyl}-benzo[b]thiophene-6-carboxylic acid] had a concentration for a half-maximal effect (EC50) at VDR of 409 nM. The IC50 in the data set with IL-10 (setting [2]) was 15 nM; in the data set on KERtr cells (setting [1]), 1 nM.
As to `CCC(CC)(c1ccc(OCC(=O)C(C)(C)C)c(C)c1)c1ccc2sc(C(=O)O)cc2c1` [Ex. 13, 5-{1-[4-(3,3-dimethyl-2-oxo-butoxy)-3-methyl-phenyl]-1-ethyl-propyl}-benzo[b]thiophene-2-carboxylic acid], the “Mouse Hypercal” value in the data set with DBF mice was more than 300 µg/kg/day. Further, the EC50 at RXR-VDR heterodimer was 488 nM and 111 nM; on VDR, 994 nM.
In the case of `C=C1/C(=C\C=C2/CCC[C@]3(C)[C@@H]([C@H](C)/C=C/[C@@H](O)C4CC4)CC[C@@H]23)C[C@@H](O)C[C@@H]1O` [FF, calcipotriol, reference compound], the IC50 in the data set with IL-10 (human PBMCs, comparison compounds, Table 4) came out at 0.5 nM; in the data set on KERtr cells (comparison compounds, Table 4, read-out: Kera. Prolif. IC50) it was 103 nM.
